Experimental data from PMC9965520, “An Efficient Peptidomics Screening for Exogenous Substrates and Inhibitory Peptides of the Dipeptidase ACE from Milk Hydrolysate” (Pharmaceutics, 2023).
No end group written: not given here.

Target: T1, ACE (Oryctolagus cuniculus, UniProt P12822)
T1 sequence (P12822 34-1310): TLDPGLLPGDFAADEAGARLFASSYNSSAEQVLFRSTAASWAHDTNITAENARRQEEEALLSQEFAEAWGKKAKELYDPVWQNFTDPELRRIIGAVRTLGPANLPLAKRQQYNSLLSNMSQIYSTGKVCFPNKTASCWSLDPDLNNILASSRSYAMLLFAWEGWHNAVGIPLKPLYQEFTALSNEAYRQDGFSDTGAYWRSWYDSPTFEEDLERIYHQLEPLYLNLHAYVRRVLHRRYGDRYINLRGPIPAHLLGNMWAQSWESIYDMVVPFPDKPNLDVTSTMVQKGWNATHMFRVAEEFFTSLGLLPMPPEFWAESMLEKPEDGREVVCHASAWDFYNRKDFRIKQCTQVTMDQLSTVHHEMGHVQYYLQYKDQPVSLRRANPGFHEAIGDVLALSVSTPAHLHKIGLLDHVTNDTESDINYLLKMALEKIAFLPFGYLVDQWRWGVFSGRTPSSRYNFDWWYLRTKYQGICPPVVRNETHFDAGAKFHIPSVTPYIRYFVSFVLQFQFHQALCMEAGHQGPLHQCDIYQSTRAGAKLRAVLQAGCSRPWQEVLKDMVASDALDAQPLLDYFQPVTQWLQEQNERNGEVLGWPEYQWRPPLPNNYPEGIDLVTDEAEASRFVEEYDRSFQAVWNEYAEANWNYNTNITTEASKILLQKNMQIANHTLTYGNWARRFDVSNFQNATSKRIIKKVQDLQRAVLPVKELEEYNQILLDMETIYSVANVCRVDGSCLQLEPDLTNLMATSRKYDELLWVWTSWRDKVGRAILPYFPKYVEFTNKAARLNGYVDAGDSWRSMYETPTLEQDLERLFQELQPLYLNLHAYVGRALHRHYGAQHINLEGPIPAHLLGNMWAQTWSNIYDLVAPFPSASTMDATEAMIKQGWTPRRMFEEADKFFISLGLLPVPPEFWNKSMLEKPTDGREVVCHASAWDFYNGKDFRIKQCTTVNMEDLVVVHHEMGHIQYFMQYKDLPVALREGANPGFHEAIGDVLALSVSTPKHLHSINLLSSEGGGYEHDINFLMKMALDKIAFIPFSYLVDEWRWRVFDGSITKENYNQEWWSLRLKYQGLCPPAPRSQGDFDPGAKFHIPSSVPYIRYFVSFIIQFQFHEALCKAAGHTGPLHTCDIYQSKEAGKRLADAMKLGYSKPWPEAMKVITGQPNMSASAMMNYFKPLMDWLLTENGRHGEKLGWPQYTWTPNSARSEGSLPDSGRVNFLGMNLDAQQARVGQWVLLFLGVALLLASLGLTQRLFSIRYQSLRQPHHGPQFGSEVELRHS
Assay: ACE pre-incubation of milk hydrolysate peptide libraries, stable-isotope dimethyl labeling and LC-MS/MS (D/H ratio)
Type: in vitro ADME, rabbit
Design: ACE (EC 3.4.15.1, 1 unit) from rabbit lungs; purchased Sigma Chemical Co. (St. Louis, MO, USA); host or cells: rabbit lungs (tissue-derived enzyme)
Settings: milk hydrolysate peptide library (<3 kDa); ACE-treated (0.05 mU/μL ACE, borate buffer, 37 °C, 3 h: 1.5 h static + 1.5 h 200 rpm; D-labeled) versus untreated (H-labeled) peptide; intensity ratio in LC-MS; <1 = hydrolysed by ACE
Protocol: The peptide libraries (200 μg) dissolved in borate buffer were equally divided into two parts, one was without any treatment (control group); the other part (experimental group) was incubated with 0.05 mU/μL ACE at 37℃ for 1.5 h statically, followed by gentle shaking at 200 rpm for another 1.5 h, and then the ACE reaction was quenched using 60 μL of 1N HCl. After lyophilization, both samples were redissolved in 100 μL of 0.1M sodium acetate and modified using stable-isotope dimethyl labeling according to the previous study with slight modifications. Briefly, the control group (without ACE incubation) had 4 μL of formaldehyde (37% solution in H2O) and 1 M NaBH3CN (10 μL) added to it; the experimental group had 20% formaldehyde-d2 (8 μL) and 1M NaBH3CN (10 μL) added to it. After 1h, 5 μL of ammonia (28% solution in H2O) were added individually to both groups to stop the reaction. The experimental group and the control group were combined and desalted using the PepClean™C18 spin column. The resulting peptide mixture was lyophilized and kept at −20 °C prior to LC-MS/MS analysis. Formaldehyde is known to the state of California to cause cancer; special caution was taken including the use of surgical gloves and a fume hood when formaldehyde was handled.
The combined mixture re-dissolved in 5% ACN containing 0.1% formic acid was separated using an Ultimate 3000 RSLC system (Dionex, Sunnyvale, CA, USA) coupled with a C18 column (Acclaim PepMap RSLC, 75 μm × 150 mm, Thermo Scientific, Waltham, Middlesex, MA, USA) and analyzed with a Thermo Q-ExactiveTM mass spectrometer (Thermo Scientific Inc., Waltham, Middlesex, MA, USA). The elution solution was composed of mobile phase A (0.1% formic acid in water) and B (0.1% formic acid in 95% acetonitrile). The elution gradient was arranged as follows: (i) isocratic elution using 1% B in the first 5.5 min for sample loading, (ii) linear gradient from 1% to 60% B in the next 39.5 min, (iii) linear gradient from 60% to 80% B in the following 10 min, and finally (iv) isocratic elution using 1% solution B for 10 min. The flow rate applied in the LC separation was maintained at 250 µL/min. The separated peptides were analyzed and quantified using Q-ExactiveTM mass spectrometry which was operated in the data-dependent mode and switched automatically between MS and HCD-MS2. A full MS scan was carried out in a 100 and 1500 m/z range, and the 14 ions of the highest intensities were selected for MS/MS scans. The RAW data were converted to the MGF file format followed by database-assisted sequencing with PEAKS DB using PEAKS Studio X (Bioinformatics Solutions Inc., Waterloo, ON, Canada). The parameters used for peptide identification were listed as follows: (1) Database: UniProt_SwissProt (Bos taurus); (2) Enzyme: pepsin, trypsin, α-chymotrypsin, or GI (the combination of these three proteases); (3) Type of enzyme: Unspecific; (4) Instrument: Orbitrap; (5) Parent mass error tolerance: 20 ppm; (6) Fragment mass error tolerance: 0.6 Da; (7) Variable modifications: Dimethyl (K), Dimethyl (N-term), Dimethyl:2H(4) (K), and Dimethyl:2H(4) (N-term) were used for identification and quantitative analysis. The sequence identified through the database was validated by manually matching with the MS/MS spectrum in the raw data. In addition to MS/MS analysis coupled with PEAKS studio, the ACE’s substrate candidates were further confirmed using the synthetic peptides with corresponding sequences by comparison with their LC retention times, m/z values, and MS/MS spectra. The relative abundances of hydrogen (H) and deuterium (D) labeled peptides were quantified based on the peak areas in their corresponding selective ion chromatograms (SIC). The D/H ratio of identified peptide with the same sequence was further examined by their relative signal intensities in MS spectrum. Theoretically, the D/H ratio of the isobaric pair should stay at 1 if the peptide will not react with ACE. […]

| Substance | D/H Ratio |
| --- | --- |
| AYFYPELFR [AR-9] | 0.19 |
| FFVAPFPEVF [FF-10] | 0.87 |
| LVYPFPGPIHNSL [LL-13] | 0.26 |

Results, then the substance that gave them:

| D/H Ratio | Substance |
| --- | --- |
| 0.12 | HLPLPLLQSW [HW-10] |
| 0.74 | LHLPLPLL [LL-8] |
| 0.33 | YVPLGTQ [YQ-7] |
